According to patent US8445492B2, “Method for inhibiting growth of cancer cells and cell telomere and diseases of cell proliferation by using heteroannelated anthraquinone derivative compounds” (National Defense Medical Center, priority 2008, dated 2013):

Legend:
Type in all cases: cell-based
SK-MEL-5 = test: NCI DTP in-vitro dose response, Melanoma
MALME-3M = test: NCI DTP in-vitro dose response, Melanoma
SK-MEL-2 = test: NCI DTP in-vitro dose response, Melanoma
LOX IMVI = test: NCI DTP in-vitro dose response, Melanoma
SK-MEL-28 = test: NCI DTP in-vitro dose response, Melanoma
UACC-62 = test: NCI DTP in-vitro dose response, Melanoma
UACC-257 = test: NCI DTP in-vitro dose response, Melanoma
M14 = test: NCI DTP in-vitro dose response, Melanoma
MCF7 = test: NCI DTP in-vitro dose response, Breast Cancer
NCI/ADR-RES = test: NCI DTP in-vitro dose response, Breast Cancer
MDA-MB-468 = test: NCI DTP in-vitro dose response, Breast Cancer
T-47D = test: NCI DTP in-vitro dose response, Breast Cancer
BT-549 = test: NCI DTP in-vitro dose response, Breast Cancer
MDA-MB-231/ATCC = test: NCI DTP in-vitro dose response, Breast Cancer
MDA-MB-435 = test: NCI DTP in-vitro dose response, Breast Cancer
HS 578T = test: NCI DTP in-vitro dose response, Breast Cancer

With `O=C1c2ccccc2C(=O)c2c1ccc1nccnc21` [TABLE 5-5] the CC50 (SK-MEL-5) was 44.4 µM, the TGI (SK-MEL-5) was 1.71E−5 and the “Percent Growth” value (SK-MEL-5; Log10 Concentration −4.0) was −92%. The “Percent Growth” value (SK-MEL-5; Log10 Concentration −5.0) was 28%, the “Percent Growth” value (SK-MEL-5; Log10 Concentration −6.0) was 82% and the “Percent Growth” value (SK-MEL-5; Log10 Concentration −7.0) was 90%. For the same compound, the “Percent Growth” value (SK-MEL-5; Log10 Concentration −8.0) was 90%, the GI50 (SK-MEL-5; read-out: GI50) was 3.93 µM and the CC50 (MALME-3M) was 70.8 µM. For the same compound, the TGI (MALME-3M) was 2.07E−5, the “Percent Growth” value (MALME-3M; Log10 Concentration −4.0) was −64% and the “Percent Growth” value (MALME-3M; Log10 Concentration −5.0) was 30%. The “Percent Growth” value (MALME-3M; Log10 Concentration −6.0) was 88%, the “Percent Growth” value (MALME-3M; Log10 Concentration −7.0) was 91% and the “Percent Growth” value (MALME-3M; Log10 Concentration −8.0) was 97%. For the same compound, the GI50 (MALME-3M; read-out: GI50) was 4.48 µM, the CC50 (SK-MEL-2) was > 100 µM and the TGI (SK-MEL-2) was 5.59E−5. For the same compound, the “Percent Growth” value (SK-MEL-2; Log10 Concentration −4.0) was −20%, the “Percent Growth” value (SK-MEL-2; Log10 Concentration −5.0) was 58% and the “Percent Growth” value (SK-MEL-2; Log10 Concentration −6.0) was 102%. The “Percent Growth” value (SK-MEL-2; Log10 Concentration −7.0) was 85%, the “Percent Growth” value (SK-MEL-2; Log10 Concentration −8.0) was 97% and the GI50 (SK-MEL-2; read-out: GI50) was 12.7 µM. The CC50 (LOX IMVI) was > 100 µM, the TGI (LOX IMVI) was 3.89E−5 and the “Percent Growth” value (LOX IMVI; Log10 Concentration −4.0) was −22%. For the same compound, the “Percent Growth” value (LOX IMVI; Log10 Concentration −5.0) was 31%, the “Percent Growth” value (LOX IMVI; Log10 Concentration −6.0) was 81% and the “Percent Growth” value (LOX IMVI; Log10 Concentration −7.0) was 85%. For the same compound, the “Percent Growth” value (LOX IMVI; Log10 Concentration −8.0) was 90%, the GI50 (LOX IMVI; read-out: GI50) was 4.2 µM and the CC50 (SK-MEL-28) was > 100 µM. For the same compound, the TGI (SK-MEL-28) was 9.11E−5, the “Percent Growth” value (SK-MEL-28; Log10 Concentration −4.0) was −3% and the “Percent Growth” value (SK-MEL-28; Log10 Concentration −5.0) was 75%. For the same compound, the “Percent Growth” value (SK-MEL-28; Log10 Concentration −6.0) was 104%, the “Percent Growth” value (SK-MEL-28; Log10 Concentration −7.0) was 101% and the “Percent Growth” value (SK-MEL-28; Log10 Concentration −8.0) was 100%. For the same compound, the GI50 (SK-MEL-28; read-out: GI50) was 21 µM, the CC50 (UACC-62) was > 100 µM and the TGI (UACC-62) was 5.61E−5. The “Percent Growth” value (UACC-62; Log10 Concentration −4.0) was −20%, the “Percent Growth” value (UACC-62; Log10 Concentration −5.0) was 60% and the “Percent Growth” value (UACC-62; Log10 Concentration −6.0) was 87%. For the same compound, the “Percent Growth” value (UACC-62; Log10 Concentration −7.0) was 84%, the “Percent Growth” value (UACC-62; Log10 Concentration −8.0) was 92% and the GI50 (UACC-62; read-out: GI50) was 13.3 µM. The CC50 (UACC-257) was > 100 µM, the TGI (UACC-257) was 6.83E−5 and the “Percent Growth” value (UACC-257; Log10 Concentration −4.0) was −11%. For the same compound, the “Percent Growth” value (UACC-257; Log10 Concentration −5.0) was 58%, the “Percent Growth” value (UACC-257; Log10 Concentration −6.0) was 99% and the “Percent Growth” value (UACC-257; Log10 Concentration −7.0) was 88%. The “Percent Growth” value (UACC-257; Log10 Concentration −8.0) was 95%, the GI50 (UACC-257; read-out: GI50) was 13 µM and the CC50 (M14) was > 100 µM. For the same compound, the TGI (M14) was >1.00E−4, the “Percent Growth” value (M14; Log10 Concentration −5.0) was 34% and the “Percent Growth” value (M14; Log10 Concentration −6.0) was 89%. For the same compound, the “Percent Growth” value (M14; Log10 Concentration −7.0) was 91%, the “Percent Growth” value (M14; Log10 Concentration −8.0) was 95% and the GI50 (M14; read-out: GI50) was 5.14 µM.
For `CCc1nc2ccc3c(c2[nH]1)C(=O)c1ccccc1C3=O` [TABLE 4-9], the CC50 (MCF7) was > 100 µM, the TGI (MCF7) was 8.14E−5 and the “Percent Growth” value (MCF7; Log10 Concentration −4.0) was −4%. For the same compound, the “Percent Growth” value (MCF7; Log10 Concentration −5.0) was 37%, the “Percent Growth” value (MCF7; Log10 Concentration −6.0) was 54% and the “Percent Growth” value (MCF7; Log10 Concentration −7.0) was 76%. The “Percent Growth” value (MCF7; Log10 Concentration −8.0) was 85%, the GI50 (MCF7; read-out: GI50) was 1.68 µM and the CC50 (NCI/ADR-RES) was > 100 µM. For the same compound, the TGI (NCI/ADR-RES) was >1.00E−4, the “Percent Growth” value (NCI/ADR-RES; Log10 Concentration −4.0) was 6% and the “Percent Growth” value (NCI/ADR-RES; Log10 Concentration −5.0) was 51%. For the same compound, the “Percent Growth” value (NCI/ADR-RES; Log10 Concentration −6.0) was 89%, the “Percent Growth” value (NCI/ADR-RES; Log10 Concentration −7.0) was 99% and the “Percent Growth” value (NCI/ADR-RES; Log10 Concentration −8.0) was 95%. For the same compound, the GI50 (NCI/ADR-RES; read-out: GI50) was 10.5 µM, the CC50 (MDA-MB-468) was > 100 µM and the TGI (MDA-MB-468) was 6.33E−5. The “Percent Growth” value (MDA-MB-468; Log10 Concentration −4.0) was −7%, the “Percent Growth” value (MDA-MB-468; Log10 Concentration −5.0) was 29% and the “Percent Growth” value (MDA-MB-468; Log10 Concentration −6.0) was 79%. The “Percent Growth” value (MDA-MB-468; Log10 Concentration −7.0) was 89%, the “Percent Growth” value (MDA-MB-468; Log10 Concentration −8.0) was 83% and the GI50 (MDA-MB-468; read-out: GI50) was 3.83 µM. The CC50 (T-47D) was > 100 µM, the TGI (T-47D) was >1.00E−4 and the “Percent Growth” value (T-47D; Log10 Concentration −4.0) was 10%. For the same compound, the “Percent Growth” value (T-47D; Log10 Concentration −5.0) was 32%, the “Percent Growth” value (T-47D; Log10 Concentration −6.0) was 78% and the “Percent Growth” value (T-47D; Log10 Concentration −7.0) was 94%. The “Percent Growth” value (T-47D; Log10 Concentration −8.0) was 105%, the GI50 (T-47D; read-out: GI50) was 4 µM and the CC50 (BT-549) was > 100 µM. For the same compound, the TGI (BT-549) was >1.00E−4, the “Percent Growth” value (BT-549; Log10 Concentration −4.0) was 15% and the “Percent Growth” value (BT-549; Log10 Concentration −5.0) was 60%. The “Percent Growth” value (BT-549; Log10 Concentration −6.0) was 95%, the “Percent Growth” value (BT-549; Log10 Concentration −7.0) was 100% and the “Percent Growth” value (BT-549; Log10 Concentration −8.0) was 101%. For the same compound, the GI50 (BT-549; read-out: GI50) was 16.7 µM, the CC50 (MDA-MB-231/ATCC) was > 100 µM and the TGI (MDA-MB-231/ATCC) was >1.00E−4. The “Percent Growth” value (MDA-MB-231/ATCC; Log10 Concentration −4.0) was 36%, the “Percent Growth” value (MDA-MB-231/ATCC; Log10 Concentration −5.0) was 54% and the “Percent Growth” value (MDA-MB-231/ATCC; Log10 Concentration −6.0) was 90%. The “Percent Growth” value (MDA-MB-231/ATCC; Log10 Concentration −7.0) was 95%, the “Percent Growth” value (MDA-MB-231/ATCC; Log10 Concentration −8.0) was 98% and the GI50 (MDA-MB-231/ATCC; read-out: GI50) was 16.6 µM. The CC50 (MDA-MB-435) was > 100 µM, the TGI (MDA-MB-435) was >1.00E−4 and the “Percent Growth” value (MDA-MB-435; Log10 Concentration −4.0) was 37%. The “Percent Growth” value (MDA-MB-435; Log10 Concentration −5.0) was 66%, the “Percent Growth” value (MDA-MB-435; Log10 Concentration −6.0) was 92% and the “Percent Growth” value (MDA-MB-435; Log10 Concentration −7.0) was 91%. The “Percent Growth” value (MDA-MB-435; Log10 Concentration −8.0) was 97%, the GI50 (MDA-MB-435; read-out: GI50) was 36.5 µM and the CC50 (HS 578T) was > 100 µM. The TGI (HS 578T) was 2.67E−5, the “Percent Growth” value (HS 578T; Log10 Concentration −4.0) was −32% and the “Percent Growth” value (HS 578T; Log10 Concentration −5.0) was 24%. For the same compound, the “Percent Growth” value (HS 578T; Log10 Concentration −6.0) was 56%, the “Percent Growth” value (HS 578T; Log10 Concentration −7.0) was 108% and the “Percent Growth” value (HS 578T; Log10 Concentration −8.0) was 107%. It also gave a GI50 (HS 578T; read-out: GI50) of 1.56 µM.
